Reference: patent US9254290B2, “Method for screening diabetes treating agent” (GWANGJU INSTITUTE OF SCIENCE AND TECHNOLOGY, priority 2010, dated 2016)

What was measured:
GLUT 1 = molecular target: T1, GLUT 1 (Homo sapiens, UniProt P11166); conditions: cited from earlier work
T1 sequence (P11166 1-492): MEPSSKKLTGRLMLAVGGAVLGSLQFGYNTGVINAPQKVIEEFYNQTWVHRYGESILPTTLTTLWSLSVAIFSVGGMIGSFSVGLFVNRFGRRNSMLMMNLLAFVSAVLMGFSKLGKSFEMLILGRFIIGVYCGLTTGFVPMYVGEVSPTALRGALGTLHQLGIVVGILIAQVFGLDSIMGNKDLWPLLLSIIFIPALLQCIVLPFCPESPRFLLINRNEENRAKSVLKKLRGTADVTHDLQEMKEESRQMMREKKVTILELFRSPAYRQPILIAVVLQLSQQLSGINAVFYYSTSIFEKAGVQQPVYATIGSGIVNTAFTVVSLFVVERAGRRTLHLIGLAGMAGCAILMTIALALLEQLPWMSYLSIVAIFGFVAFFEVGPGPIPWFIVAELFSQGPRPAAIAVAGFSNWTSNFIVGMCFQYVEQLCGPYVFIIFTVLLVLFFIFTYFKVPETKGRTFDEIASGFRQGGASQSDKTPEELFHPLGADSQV

3T3-L1 adipocytes = assay: 6-NBDG uptake screening in 3T3-L1 adipocytes, 96-well, fluorescent microplate reader; assay type: cell-based, murine; conditions: 100 nM insulin or 250 μM zinc sulfate; 6-NBDG vs 2-NBDG
Procedure: 3T3-L1 murine fibroblasts were maintained in proliferation media, consisting of DMEM supplemented with 10% FBS, 50 units/mL penicillin and 50 μg/mL streptomycin. 3T3-L1 fibroblasts were induced to differentiate into adipocytes as follows: 48 h postconfluent cells (designated day 0) were cultured in DMEM supplemented 10% FBS, 0.5 mM 3-isobutyl-1-methyl-xanthine, 2 μg/ml dexamethasone, 1 μg/ml insulin, 50 units/mL penicillin and 50 μg/mL streptomycin for 2 days. Every 2 days thereafter, the cells were incubated with fresh DMEM supplemented with 10% FBS and 1 μg/ml insulin. 3T3-L1 adipocytes were used for experiments 8 days after the induction of differentiation.
Three cell lines were chosen to test if NBDG can be used to detect insulin-stimulated glucose uptake in a 96 well plate culture format, which is more suitable for cell-based screening to identify novel insulin mimetic compounds. The cell lines chosen were Huh7 hepatocytes, C2C12 myoblasts and 3T3-L1 pre-adipocytes, which represent the major body tissue types that are sensitive to the action of insulin (liver, muscle and fat). 10^4 cells/well were seeded in a black, 96 well tissue culture plate (BD Falcon, NJ, USA). C2C12 myoblasts and 3T3-L1 adipocytes were induced to undergo differentiation into myotubes and adipocytes, respectively, to compare the NDBG signal in proliferating and differentiated cells. NBDG uptake was measured following treatment with 10 nM or 100 nM insulin, and 1 μM or 10 μM rosiglitazone (an insulin-sensitizing agent), using a fluorescent microplate reader (SpectraMAX GeminiXS and SoftMax Pro V5 software, Molecular Devices, CA, USA). Cells were cultured in serum-free low glucose culture media for 3 h before the addition of insulin.
To test the NBDG-based screening system, a combinatorial chemical library of 576 triazine-based small molecules was screened at a concentration of 5 μM. The combinatorial library was provided by Professor Young-Tae Chang, Department of Chemistry, National University of Singapore.
To test if this screening protocol could detect new insulin mimetic compounds, a combinatorial chemical library of 576 triazine-based small molecules was screened.

## O=[N+]([O-])c1ccc(NCC2OC(O)C(O)C(O)[C@@H]2O)c2nonc12 (some centres unmarked) [6-NBDG, 6-(N-(7-nitrobenz-2-oxa-1,3-diazol-4-yl)amino)-6-deoxyglucose, reference compound]
GLUT 1
  affinity for GLUT 1 relative to glucose: 300 times
3T3-L1 adipocytes
  fluorescent signal of probe after insulin-stimulated uptake: produced a greater fluorescent signal than 2-NBDG
